Assay results published in article PMC9851200, “Multiparameter phenotypic screening for endogenous TFEB and TFE3 translocation identifies novel chemical series modulating lysosome function” (Autophagy, 2022).
Where two headings read alike, the source gives them in different places.

Legend:
[1] = tested on: SH-SY5Y cells; assay: Nuclear count from microscopy images (cellular growth and toxicity); further: reference of the scale not given here
[2] = tested on: endogenous TFEB; assay: TFEB nuclear translocation, immunocytochemistry high-content imaging; type: cell-based
[3] = tested on: SH-SY5Y cells; further: reference of the scale not given here
[4] = tested on: SH-SY5Y cells; assay: AK (adenylate kinase) release ToxiLight cytotoxicity assay; further: reference of the scale not given here
[5] = tested on: endogenous TFE3; assay: TFE3 nuclear translocation, immunocytochemistry high-content imaging; type: cell-based
[6] = PKIS2 primary screening, DQ Red BSA intensity
[7] = PKIS2 primary screening, DQ Red BSA spot count

In the case of CN1CCN(CCCNc2nccc(-c3c(-c4ccc(F)cc4)nn4cc(C(F)(F)F)ccc34)n2)CC1 [UNC10225376A], the “Nuclear Count” value ([1]; PKIS2 primary screening) is reported as 97.99, the TFEB % ([2]; PKIS2 primary screening) is reported as 5.73% and the “DQ Intensity” value ([3]; PKIS2 primary screening) is reported as 120.10. The “DQ Spot” value ([3]; PKIS2 primary screening) was 102.44, the AK ([4]; PKIS2 primary screening) was 108.97 and the TFE3 % ([5]; PKIS2 primary screening) was 16.03%.
In the case of Cc1occc1-c1nc(N)c(OC[C@@H](N)Cc2c[nH]c3ccccc23)cc1-c1cc2c(C)n[nH]c2cn1 [UNC10225217A], the “Nuclear Count” value ([1]; PKIS2 primary screening) is reported as 82.67, the TFEB % ([2]; PKIS2 primary screening) is reported as 6.02% and the “DQ Intensity” value ([3]; PKIS2 primary screening) is reported as 96.09. The “DQ Spot” value ([3]; PKIS2 primary screening) was 101.21, the AK ([4]; PKIS2 primary screening) was 91.49 and the TFE3 % ([5]; PKIS2 primary screening) was 15.99%.
With NS(=O)(=O)c1cccc(N/C=C2\C(=O)Nc3ccc(S(=O)(=O)Cc4c(Cl)cccc4Cl)cc32)c1 [UNC10225298A] the “Nuclear Count” value ([1]; PKIS2 primary screen) was 112.41, the TFEB % ([2]; PKIS2 primary screen) was 5.78% and the “DQ Intensity” value ([3]; PKIS2 primary screen, DQ Red BSA intensity) was 100.02. For the same compound, the “DQ Spot” value ([3]; PKIS2 primary screen, DQ Red BSA spot count) was 99.79, the AK ([4]; PKIS2 primary screen) was 117.06 and the TFE3 % ([5]; PKIS2 primary screen) was 5.33%.
In the case of CCn1c(-c2cccnc2O)nc2cnccc21 [UNC10225114A], the “Nuclear Count” value ([1]; PKIS2 primary screening) is reported as 103.96, the TFEB % ([2]; PKIS2 primary screening) is reported as 10.78% and the “DQ Intensity” value ([3]; PKIS2 primary screening) is reported as 101.68. For the same compound, the “DQ Spot” value ([3]; PKIS2 primary screening) was 98.93, the AK ([4]; PKIS2 primary screening) was 77.22 and the TFE3 % ([5]; PKIS2 primary screening) was 9.51%.
For CSc1nccc(-c2c(-c3ccc(F)cc3)ncn2CCCN2CCOCC2)n1.Cl [UNC10225426A], the “Nuclear Count” value ([1]; PKIS2 primary screening) was 113.07, the TFEB % ([2]; PKIS2 primary screening) was 11.69% and the “DQ Intensity” value ([3]; PKIS2 primary screening) was 91.90. For the same compound, the “DQ Spot” value ([3]; PKIS2 primary screening) was 91.96, the AK ([4]; PKIS2 primary screening) was 81.99 and the TFE3 % ([5]; PKIS2 primary screening) was 5.71%.
For Nc1nccc(-c2c(-c3ccc(F)cc3)ncn2C2CCN(CC(F)(F)F)CC2)n1 [UNC10225173A], the “Nuclear Count” value ([1]; PKIS2 primary screening) was 107.53, the TFEB % ([2]; PKIS2 primary screening) was 11.13% and the “DQ Intensity” value ([3]; PKIS2 primary screening) was 90.34. For the same compound, the “DQ Spot” value ([3]; PKIS2 primary screening) was 99.50, the AK ([4]; PKIS2 primary screening) was 117.50 and the TFE3 % ([5]; PKIS2 primary screening) was 11.80%.
In the case of COc1cc2nccc(Nc3ccc(OCc4ccc(NC(C)=O)cc4)cc3)c2cc1OC.Cl [UNC10225233A], the “Nuclear Count” value ([1]; PKIS2 primary screening) is reported as 125.55, the TFEB % ([2]; PKIS2 primary screening) is reported as 5.84% and the “DQ Intensity” value [3, 6] is reported as 120.40. The “DQ Spot” value [3, 7] was 99.45, the AK ([4]; PKIS2 primary screening) was 100.23 and the TFE3 % ([5]; PKIS2 primary screening) was 18.79%.
With Cc1cc(-c2ccnc(Nc3cccc(C#N)c3)n2)cc(C)c1O [GSK1440913] the “Nuclear Count” value ([1]; PKIS2 primary screening) was 76.93, the TFEB % ([2]; PKIS2 primary screening) was 7.49% and the “DQ Intensity” value [3, 6] was 63.54. The “DQ Spot” value [3, 7] was 78.51, the AK ([4]; PKIS2 primary screening) was 97.58 and the TFE3 % ([5]; PKIS2 primary screening) was 21.61%.
COC(=O)Nc1nc2ccc(Oc3ccc(CC(=O)Nc4cc(C(F)(F)F)ccc4F)cc3)cc2[nH]1 [GW680903] was tested, and the “Nuclear Count” value ([1]; PKIS2 primary screening) was 109.57, the TFEB % ([2]; PKIS2 primary screening) was 2.10% and the “DQ Intensity” value [3, 6] was 59.92. For the same compound, the “DQ Spot” value [3, 7] was 85.78, the AK ([4]; PKIS2 primary screening) was 72.57 and the TFE3 % ([5]; PKIS2 primary screening) was 12.77%.
With O=C(Nc1n[nH]c2nc(-c3ccco3)c(Br)cc12)c1ccc(CN2CCCC2)cc1 [SB-742352] the “Nuclear Count” value ([1]; PKIS2 primary screening) was 100.71, the TFEB % ([2]; PKIS2 primary screening) was 7.90% and the “DQ Intensity” value [3, 6] was 92.66. For the same compound, the “DQ Spot” value [3, 7] was 91.08, the AK ([4]; PKIS2 primary screening) was 95.96 and the TFE3 % ([5]; PKIS2 primary screening) was 19.33%.
COc1cc(Nc2ccnc3ccc(C(F)(F)F)cc23)cc(OC)c1OC [UNC10225109A] was tested, and the “Nuclear Count” value ([1]; PKIS2 primary screening) was 107.71, the TFEB % ([2]; PKIS2 primary screening) was 5.89% and the “DQ Intensity” value [3, 6] was 93.31. The “DQ Spot” value [3, 7] was 111.66, the AK ([4]; PKIS2 primary screening) was 98.24 and the TFE3 % ([5]; PKIS2 primary screening) was 7.95%.
In the case of Nc1ncc(-c2cn[nH]c2)c2scc(-c3ccc4c(c3)CCN4C(=O)Cc3ccccc3)c12 [UNC10225500A], the “Nuclear Count” value ([1]; PKIS2 primary screening) is reported as 110.94, the TFEB % ([2]; PKIS2 primary screening) is reported as 8.67% and the “DQ Intensity” value [3, 6] is reported as 108.00. The “DQ Spot” value [3, 7] was 96.83, the AK ([4]; PKIS2 primary screening) was 74.47 and the TFE3 % ([5]; PKIS2 primary screening) was 18.45%.
For Cc1nnc(-c2ccc(C)c(-c3ccc(C(=O)Nc4ccc(NS(C)(=O)=O)cc4)cc3)c2)o1 [UNC10225285A], the “Nuclear Count” value ([1]; PKIS2 primary screening) was 90.38, the TFEB % ([2]; PKIS2 primary screening) was 4.26% and the “DQ Intensity” value ([3]; PKIS2 primary screening) was 105.08. The “DQ Spot” value ([3]; PKIS2 primary screening) was 99.25, the AK ([4]; PKIS2 primary screening) was 85.18 and the TFE3 % ([5]; PKIS2 primary screening) was 14.74%.
With CNc1nc(-c2ccc3c(N)n[nH]c3c2)cc(N2C[C@@H](C(=O)Nc3ccccc3)CC[C@H]2C)n1 [GSK2298859] the “Nuclear Count” value ([1]; PKIS2 primary screening) was 105.37, the TFEB % ([2]; PKIS2 primary screening) was 6.90% and the “DQ Intensity” value [3, 6] was 117.75. The “DQ Spot” value [3, 7] was 109.70, the AK ([4]; PKIS2 primary screening) was 105.92 and the TFE3 % ([5]; PKIS2 primary screening) was 12.86%.
